Experimental data as given in US20220249484A1, “METHODS FOR PREDICTING RESPONSIVENESS OF CANCER TO FERROPTOSIS-INDUCING THERAPIES” (Memorial Sloan Kettering Cancer Center, priority 2019, published 2022).

What was measured:
[1] = test system: HCT116 cells; test: Ferroptosis in confluent HCT116 cells expressing shEcad, shMerlin or shLats1/2; assay type: cell-based, human; conditions: cell death 18 h, lipid ROS 14 h; versus shNT
Procedure: (§1) Measurement of cell death, cell viability and lipid peroxidation. Cell death was analyzed by propidium iodide (Invitrogen, Waltham, Mass., USA) or SYTOX Green (Invitrogen) staining followed by microscopy or flow cytometry. For 3D spheroids, cell viability was determined using the CellTiter-Glo® 3D Cell Viability Assay (Promega, Madison, Wis., USA) according to the manufacturer's instructions. Viability was calculated by normalizing ATP levels to spheroids treated with normal full media. To analyze lipid peroxidation, cells were stained with 5 μM BODIPY-C11 (Invitrogen) for 30 minutes at 37° C. followed by flow cytometric analysis.
The involvement of the Hippo signaling in the regulation of ferroptosis by cell-cell contact was also assessed. Cells depleted of Ecad, Merlin, or Lats were generated using shRNA technology. HCT116 cells were infected by lentiviruses expressing shRNA sequences targeting Ecad (shEcad), Merlin (shMerlin), or Lats1/2 (shLats1/2), as indicated. Knockdown efficiency was confirmed by Western blot (FIG. 2B). […] Cell death was measured at 30 h using SYTOX Green staining followed by flow cytometry. Lipid ROS was measured at 24 hours using C11-BODIPY staining coupled with flow cytometry. […] Cell death was measured at 18 h and lipid ROS was measured at 14 h (FIG. 11A).

[2] = test system: MEFs; test: Ferroptosis and lipid ROS in MEFs; assay type: cell-based, mouse
Procedure: as §1
Merlin-regulated ferroptosis in cell density dependent manner was also observed in MEFs, which are not of epithelial origin. Cell death of MEFs with different cell density induced by cystine starvation for 12 h was measured by PI staining (FIG. 15A), and flow cytometry (FIG. 15B). The effect of cystine starvation on lipid ROS production in MEFs cells with different cell density (6 h treatment) is also shown in FIG. 15B. […] As shown in FIGS. 15A-15D, increased cell density mitigated both cell death and lipid ROS generation induced by cystine starvation, erastin and RSL3 in MEFs.
MEFs also regulated the activity of YAP at high density in a Merlin-dependent manner. MEFs seeded at increasing density were probed for YAP localization by Immunofluorescence (FIG. 15E). The effect of Merlin was assessed by infecting MEFs with shMerlin lentivirus and selected with puromycin. […] As shown in FIGS. 15E-15F, with increasing cell confluence, there was an increase of YAP nuclear exclusion in MEFs, which was attenuated by Merlin knockdown.

[3] = test system: MSTO-211H cells; test: Ferroptosis in confluent MSTO-211H cells (shMerlin, shNcad); assay type: cell-based, human
Procedure: as §1
To confirm the ferroptosis-regulating role of Merlin in mesothelioma cells, the effect of Merlin knockdown on ferroptosis sensitivity was assessed. MSTO-211H cells were infected with lentiviruses expressing shMerlin. RNAi knockdown efficiency was confirmed by Western blot (FIG. 3F). Then, shNT or shMerlin MSTO-211H cells were cultured to high confluence, at which point they were treated with media containing or lacking cystine, with or without Fer-1 for 24 h. Cell death was measured by SYTOX Green staining followed by flow cytometry (FIG. 3G). To measure lipid reactive species, shNT or shMerlin MSTO-211H cells were treated for 18 h, at which point they were stained with 2 μM C11-BODIPY for lipid ROS measurement (FIG. 311). Confluent MSTO-211H cells expressing shNT or shMerlin were also treated with 1 μM RSL3 with or without […] Fer-1. Cell death (left, 24 h after treatment) and lipid ROS production (right, 16 h) were measured (FIG. 13B).
Therefore, the cell density dependence of ferroptosis is not limited to epithelial cells expressing Ecad. […] To assess the expression of N-cadherin in MSTO-211H mesothelioma cells, the cells were cultivated at different cell densities, and the levels of Ncad, p-YAP and total YAP were analyzed by Western blot. […] Therefore, the potential role of Ncad in ferroptosis was tested. MSTO-211H cells were infected with lentiviruses expressing Ncad shRNA (shNcad) and selected with puromycin.

[4] = test system: HCT116 cells; test: Ferroptosis in HCT116 cells expressing PAK-CAAX; assay type: cell-based, human; conditions: constitutively active PAK-CAAX versus inactive PAK^K298R-CAAX
[5] = test system: HCT116 cells; test: Cell density-dependent induction of ferroptosis in HCT116 cells (cell death and lipid ROS by flow cytometry); assay type: cell-based, human; conditions: 5 μM RSL3; different cell density; cell death 24 h, lipid ROS 16 h
Procedure: Induction and inhibition of ferroptosis. To induce ferroptosis, cells with different density were seeded in 6-well plates. For cystine-starvation experiments, cells were washed with PBS twice and then cultured in cystine-free medium in the presence of 10% (v/v) dialyzed FBS for the indicated time. The ferroptosis inducing compounds erastin and RSL3 and the ferroptosis inhibitor Ferrostatin-1 were purchased from Sigma-Aldrich (St. Louis, Mo., USA).
as §1, with “To analyze lipid peroxidation, cells were stained with 5 μM BODIPY-C11 (Invitrogen) for 30 minutes at 37° C. followed by flow cytometric analysis.” left out
To test erastin-induced ferroptosis, HCT116 cells with different cell density were treated with 30 μM erastin and quantification of cell death by propidium iodide (PI) staining followed by flow cytometry (after 30 h of erastin treatment). Lipid ROS production was assessed by C11-BODIPY staining followed by flow cytometry (after 24 h of erastin treatment). […]

[6] = test system: HCT116 cells; test: RSL3-induced cell death in HCT116 cells overexpressing TFRC and/or ACSL4; assay type: cell-based, human; conditions: 2 μM RSL3, 24 h; SYTOX Green
Procedure: To test whether TFRC and ACSL4 can directly enhance ferroptosis in confluent cells, TFRC and ACSL4 separately or in combination were overexpressed. HCT116 cells were transduced with retroviral particles containing mCherry-ACSL4, transfected with TFRC, or both. Expression was assayed by Western blot. Two bands were detected for mCherry-ACSL4, representing the full-length mCherry-ACSL4 and that with mCherry tag truncated (FIG. 17A). Additionally, cells were plated at the indicated density and treated with 2 μM RSL3 for 24 h. Cell death was measured by SYTOX Green staining coupled with flow cytometry.

[7] = test system: NF639 cells; test: Expression of EMT-related genes by qPCR after TGF-β; assay type: cell-based, mouse; conditions: various concentrations of TGF-β, 48 h
Procedure: RNA extraction and qRT-PCR. RNA was extracted using the TRIzol reagent (Invitrogen). 20% chloroform was added to each sample, vortexed briefly, and incubated at room temperature for 15 min. Samples were then centrifuged at high speed at 4° C. for 15 min. The aqueous phase was moved to a new tube and an equal volume of isopropanol was added. Samples were incubated at room temperature for 10 min, followed by centrifugation at high speed at 4° C. for 10 min. Pellets were washed in 95% ethanol, dried, and resuspended in nuclease-free water. cDNA was synthesized using iScript™ cDNA Synthesis Kit according to the manufacturer's instructions (Bio-Rad). qRT-PCR was performed with IQ™ SYBR® Green Supermix (Bio-Rad) in a CFX Connect Real-Time PCR Detection System (Bio-Rad).
The potential link between epithelial-mesenchymal transition (EMT) and ferroptosis was examined using cells generated from mammary tumors of MMTV-neu mice. NF639 cells, derived from mouse mammary tumors containing MMTV-neu, were treated with various concentrations of TGF-β for 48 h to induce EMT. TGF-β can enhance EMT in cells bearing overactive HER2/neu signaling. Expression of a panel of EMT-related genes was assayed by qPCR as indicated.

[8] = test system: NF639 cells; test: Cystine deprivation-induced ferroptosis after TGF-β; assay type: cell-based, mouse; conditions: 6 ng/μL TGF-β 48 h; 3.2×10^5 cells/3.5 cm^2 well; cystine-free 12 h; untreated cells highly resistant
Procedure: To determine the effect of TGF-β on cystine deprivation induced ferroptosis, NF639 cells were treated with or without 6 ng/μL TGF-β for 48 h, at which point they were plated at low density (0.8 cells×10^5/3.5 cm^2 well), grown overnight, and treated with media containing or lacking cystine, or lacking cystine with 1 μM ferrostatin-1 for 12 h. NF639 cells were also plated at a high density of 3.2×10^5 cells/3.5 cm^2 well, grown overnight and treated with media containing or lacking cystine, or lacking cystine with 1 μM ferrostatin-1 for 12 h. Cell death was measured by Sytox green staining coupled with flow cytometry.

Compound | RSL3-induced cell death and lipid ROS after knockdown of Ecad, Merlin, Lats1/2 [1] | RSL3-induced ferroptosis and lipid ROS in MEFs at different densities ([2]; 1 μM RSL3, ferroptosis 8 h, lipid ROS 5 h) | RSL3-induced cell death and lipid ROS in confluent Merlin RNAi MEFs ([2]; RSL3 1 μM, 8 h) | sensitivity of confluent shNcad cells to RSL3 (cell death) ([3]; 1 μM RSL3, 16 h) | sensitivity of confluent shMerlin cells to RSL3 (cell death, lipid ROS) ([3]; 1 μM RSL3, cell death 24 h, lipid ROS 16 h) | RSL3-induced ferroptosis in PAK-CAAX expressing cells [4] | RSL3-induced ferroptosis (cell death, lipid ROS) [5] | RSL3-induced cell death, confluent cells co-expressing TFRC and ACSL4 [6] | RSL3-induced cell death, confluent cells expressing either TFRC or ACSL4 [6] | expression of EMT-related genes [7] | cell death under cystine starvation at high cell density [8]
COC(=O)c1ccc([C@@H]2c3[nH]c4ccccc4c3C[C@@H](C(=O)OC)N2C(=O)CCl)cc1 [RSL3] | sensitized HCT116 cells to ferroptosis and increased lipid ROS accumulation | ferroptosis (8 h) and lipid ROS production (5 h) was also observed | increased cell death and lipid ROS production | sensitized these cells to ferroptosis | became sensitive | enhanced RSL3-induced ferroptosis | induces HCT116 human colon cancer cells to undergo ferroptosis in a cell density-dependent manner | further enhanced cell death | partially sensitized to ferroptosis | – | –
TGF-β | – | – | – | – | – | – | – | – | – | upregulated the expression of multiple EMT-related genes | died under cystine starvation at high cell density
